{"source": "patent EP1083874B1", "about": "“Use of a compound for the preparation of a medicament for treating alopecia or promoting hair growth in an animal” (GPI NIL Holdings, Inc., priority 1998, dated 1999)"}
{"target": "FKBP12 (Homo sapiens, UniProt P62942)", "sequence (P62942 whole entry, species assumed)": "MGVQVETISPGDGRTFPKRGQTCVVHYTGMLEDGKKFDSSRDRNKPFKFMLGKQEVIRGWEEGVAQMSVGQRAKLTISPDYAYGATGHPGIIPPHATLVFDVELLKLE", "test": "Ki test procedure: inhibition of peptidyl-prolyl isomerase (rotamase) activity, chymotrypsin-coupled assay", "format": "biochemical", "details": "apparent Ki", "text": "The inhibition of the prolyl peptidyl cis-trans isomerase activity of FKBP may be measured as an indicator of this affinity.\nInhibition of the peptidyl-prolyl isomerase (rotamase) activity of the compounds used in the pharmaceutical compositions can be evaluated by known methods described in the literature (Harding et al., Nature, 1989, 341:758-760; Holt et al. J. Am. Chem. Soc., 115:9923-9938).\nThe cis-trans isomerization of an alanine-proline bond in a model substrate, N-succinyl-Ala-Ala-Pro-Phe-p-nitroanilide, is monitored spectrophotometrically in a chymotrypsin-coupled assay, which releases para-nitroanilide from the trans form of the substrate. The inhibition of this reaction caused by the addition of different concentrations of inhibitor is determined, and the data is analyzed as a change in first-order rate constant as a function of inhibitor concentration to yield the apparent Ki values.\nIn a plastic cuvette are added […] of ice cold assay buffer (25 mM HEPES, pH 7.8, 100 mM NaCl), 10 mL of FKBP (2.5 mM in 10 mM Tris-Cl pH 7.5, 100 mM NaCl, 1 mM dithiothreitol), 25 mL of chymotrypsin (50 mg/ml in 1 mM HCl) and […] of test compound at various concentrations in dimethyl sulfoxide. The reaction is initiated by the addition of 5 mL of substrate (succinyl-Ala-Phe-Pro-Phe-para-nitroanilide, 5 mg/mL in 2.35 mM LiCl in trifluoroethanol).\nThe absorbance at 390 nm versus time is monitored for 90 seconds using a spectrophotometer and the rate constants are determined from the absorbance versus time data files.", "units": {"Ki": "nM"}}
{"smiles": "O=C(C(=O)N1CCCC[C@H]1C(=O)OCCc1ccccc1)c1ccccc1", "note": "[Compound 14]", "Ki": 1100}
{"smiles": "COC(=O)C(=O)N1CCCC[C@H]1C(=O)OCc1ccccc1", "note": "[Compound 16]", "Ki": 80000}
{"smiles": "COC(=O)C(=O)N1CCCC[C@H]1C(=O)OCCCC1CCCC1", "note": "[Compound 19]", "Ki": 35000}
{"smiles": "COc1cc(C(=O)C(=O)N2CCCC[C@H]2C(=O)OCCCCc2ccccc2)cc(OC)c1OC", "note": "[Compound 23]", "Ki": 19}
{"smiles": "O=C(C(=O)N1CCCC[C@H]1C(=O)OCCCCc1ccccc1)c1ccccc1", "note": "[Compound 13]", "Ki": 350}
{"smiles": "COc1ccc(CCCCOC(=O)[C@@H]2CCCCN2C(=O)C(=O)c2cc(OC)c(OC)c(OC)c2)cc1", "note": "[Compound 25]", "Ki": 13}
{"smiles": "O=C(C(=O)N1CCCC[C@H]1C(=O)OCCCCC1CCCCC1)c1ccccc1", "note": "[Compound 15]", "Ki": 400}
{"smiles": "O=C(C(=O)N1CCCC[C@H]1C(=O)OCc1ccccc1)c1ccco1", "note": "[Compound 20]", "Ki": 3000}
{"smiles": "COC(=O)C(=O)N1CCCC[C@H]1C(=O)OCCCC1CCCCC1", "note": "[Compound 18]", "Ki": 20000}
{"smiles": "O=C(C(=O)N1CCCC[C@H]1C(=O)OCc1ccccc1)c1ccccc1", "note": "[Compound 10]", "Ki": 1500}
